Data from patent EP0128651A2, “Pyranones and related compounds and methods for their production and use” (WARNER-LAMBERT COMPANY, priority 1983, dated 1984).
Values after ≈ are worked out from the molar mass of the structure shown. Marks after values point to notes of the source that are not given here.

Key:
L1210 Cells = experiment: Cytotoxicity against L1210 cells; format: cell-based; conditions: Mus musculus, read-out: ID50 (the source's name)
Mluse Lewis Lung = experiment: Animal tumor screening, mouse Lewis lung; format: in vivo; design: key: -X= Borderline activity shown.; X= Activity shown. The initial endpoint is less stringent and is indicative of statistical significance.; XX= Outstanding activity shown and a proportion of "cures" produced. The stringent endpoint is indicative of sufficient antitumor selectivity to warrant consideration for development toward clinical trial.; No= No activity shown
Human Lung Xenograft = experiment: Animal tumor screening, human lung xenograft; format: in vivo; design: key: -X= Borderline activity shown.; X= Activity shown. The initial endpoint is less stringent and is indicative of statistical significance.; XX= Outstanding activity shown and a proportion of "cures" produced. The stringent endpoint is indicative of sufficient antitumor selectivity to warrant consideration for development toward clinical trial.; No= No activity shown
Mouse Leukemia L1210 = experiment: Animal tumor screening, response of L1210 leukemia in mice; format: in vivo; design: key to Activiity: -X= Borderline activity shown.; X= Activity shown. The initial endpoint is less stringent and is indicative of statistical significance.; XX= Outstanding activity shown and a proportion of "cures" produced. The stringent endpoint is indicative of sufficient antitumor selectivity to warrant consideration for development toward clinical trial.; No= No activity shown; conditions: for T/C(%) / "Cures": Daily x 9
Mouse Melanoma B16 = experiment: Animal tumor screening, mouse melanoma B16; format: in vivo; design: key: -X= Borderline activity shown.; X= Activity shown. The initial endpoint is less stringent and is indicative of statistical significance.; XX= Outstanding activity shown and a proportion of "cures" produced. The stringent endpoint is indicative of sufficient antitumor selectivity to warrant consideration for development toward clinical trial.; No= No activity shown
Mouse Leukemia P3888 = experiment: Animal tumor screening, mouse leukemia P388; format: in vivo; design: key: -X= Borderline activity shown.; X= Activity shown. The initial endpoint is less stringent and is indicative of statistical significance.; XX= Outstanding activity shown and a proportion of "cures" produced. The stringent endpoint is indicative of sufficient antitumor selectivity to warrant consideration for development toward clinical trial.; No= No activity shown
Mouse Colon 38 = experiment: Animal tumor screening, mouse colon 38; format: in vivo; design: key: -X= Borderline activity shown.; X= Activity shown. The initial endpoint is less stringent and is indicative of statistical significance.; XX= Outstanding activity shown and a proportion of "cures" produced. The stringent endpoint is indicative of sufficient antitumor selectivity to warrant consideration for development toward clinical trial.; No= No activity shown
Mouse Mammary CD8F1 = experiment: Animal tumor screening, mouse mammary CD8F1; format: in vivo; design: key: -X= Borderline activity shown.; X= Activity shown. The initial endpoint is less stringent and is indicative of statistical significance.; XX= Outstanding activity shown and a proportion of "cures" produced. The stringent endpoint is indicative of sufficient antitumor selectivity to warrant consideration for development toward clinical trial.; No= No activity shown; conditions: treatment started 34 days after tumor implant (advanced-stage tumor)
Human Mammary Xenograft = experiment: Animal tumor screening, human mammary xenograft; format: in vivo; design: key: -X= Borderline activity shown.; X= Activity shown. The initial endpoint is less stringent and is indicative of statistical significance.; XX= Outstanding activity shown and a proportion of "cures" produced. The stringent endpoint is indicative of sufficient antitumor selectivity to warrant consideration for development toward clinical trial.; No= No activity shown

Compound: CC(=O)OCC=CC=CC=CC(CC(OP(=O)(O)O)C(C)(O)C=CC1CC=CC(=O)O1)OC(C)=O.[Na] (stereo not shown) [CL 1565-A Diacetate, Sodium Salt, 6-[6,13-Bis(acetyloxy)-3-hydroxy-3-methyl-4-(phosphonooxy)-1,7,9,11-tridecatetraenyl]-5,6-dihydro-2H-pyran-2-one, sodium salt]
- IC50 (L1210 Cells): ~6 µg/mL

Compound: CC(O)(C=CC1CC=CC(=O)O1)C(O)CC(O)C=CC=CC=CCO (stereo not shown) [CL 1565-A alcohol, 5,6-Dihydro-6-(3,4,6,13-tetrahydroxy-3-methyl-l,7,9, 11-tridecatetraenyl)-2H-pyran-2-one]
- IC50 (L1210 Cells): 2.5 µg/mL (≈ 7.13 µM)

Compound: CC(O)(C=CC1CC=CC(=O)O1)C(CC(O)C=CC=CC=CCO)OP(=O)(O)O (stereo not shown) [CL 1565-A, 5,6-dihydro-6-(3,6,13-trihydroxy-3-methyl-4-(phosphonooxy)-1,7,9,11-tridecatetraenyl)-2H-pyran-2-one]
- Activiity (Mluse Lewis Lung): No
- Activiity (Human Lung Xenograft): No
- Activiity (Mouse Leukemia L1210; Mouse Leukemia L1210): XX (curative)
- T/C(%) (Mouse Leukemia L1210; Test 1, 6.25 mg/kg/dose): 207%
- "Cures" (Mouse Leukemia L1210; Test 1, 6.25 mg/kg/dose, 30-day survivors are considered cures): 0/6^e
- T/C(%) (Mouse Leukemia L1210; Test 2, 3.12 mg/kg/dose): 191%
- "Cures" (Mouse Leukemia L1210; Test 2, 3.12 mg/kg/dose, survivors at completion of observation period): 0/6
- T/C(%) (Mouse Leukemia L1210; Test 2, 6.25 mg/kg/dose): 194%
- "Cures" (Mouse Leukemia L1210; Test 2, 6.25 mg/kg/dose, survivors at completion of observation period): 1/6
- T/C(%) (Mouse Leukemia L1210; Test 2, 12.50 mg/kg/dose): 337%
- "Cures" (Mouse Leukemia L1210; Test 2, 12.50 mg/kg/dose, survivors at completion of observation period): 3/6
- T/C(%) (Mouse Leukemia L1210; Test 3, 1.56 mg/kg/dose): 150%
- "Cures" (Mouse Leukemia L1210; Test 3, 1.56 mg/kg/dose, survivors at completion of observation period): 0/6
- T/C(%) (Mouse Leukemia L1210; Test 3, 3.12 mg/kg/dose): 195%
- "Cures" (Mouse Leukemia L1210; Test 3, 3.12 mg/kg/dose, survivors at completion of observation period): 0/6
- T/C(%) (Mouse Leukemia L1210; Test 3, 6.25 mg/kg/dose): 216%
- "Cures" (Mouse Leukemia L1210; Test 3, 6.25 mg/kg/dose, survivors at completion of observation period): 0/6
- T/C(%) (Mouse Leukemia L1210; Test 3, 12.50 mg/kg/dose): 246%
- "Cures" (Mouse Leukemia L1210; Test 3, 12.50 mg/kg/dose, 45-day observation period): 0/6^f
- T/C(%) (Mouse Leukemia L1210; Test 4, 3.12 mg/kg/dose): 194%
- "Cures" (Mouse Leukemia L1210; Test 4, 3.12 mg/kg/dose, survivors at completion of observation period): 0/6
- T/C(%) (Mouse Leukemia L1210; Test 4, 6.25 mg/kg/dose): 236%
- "Cures" (Mouse Leukemia L1210; Test 4, 6.25 mg/kg/dose, survivors at completion of observation period): 1/6
- T/C(%) (Mouse Leukemia L1210; Test 4, 12.50 mg/kg/dose): 268%
- "Cures" (Mouse Leukemia L1210; Test 4, 12.50 mg/kg/dose, survivors at completion of observation period): 0/6^g
- curative effect in the L1210 tumor mouse model (Mouse Leukemia L1210; result in words): curative
- survival period of mice inoculated with mouse leukemia L1210 (Mouse Leukemia L1210; result in words): significantly prolongs the survival period
- Activiity (Mouse Melanoma B16): No
- Activiity (Mouse Leukemia P3888): X
- Activiity (Mouse Colon 38): X
- Activiity (Mouse Mammary CD8F1): Xa
- Activiity (Human Mammary Xenograft): -X
